# Laboratory results published in patent US6908628B2, “Disinfectant and antiseptic composition” (priority 2001, dated 2005).
# Columns and labels:
# Type in all cases: cell-based
# [1] = tested on: P. aeruginosa; experiment: MIC in a solid medium; details: expressed as dilution of the product
# Description: (§1) This is shown by means of its MIC (minimum inhibiting concentration).
# (§2) A MIC is obtained in a solid medium against S. aureus and P. aeruginosa.
# [2] = tested on: S. aureus; experiment: MIC in a solid medium; details: expressed as dilution of the product
# Description: as §1, §2
# [3] = tested on: spores of B subtilis; experiment: Sporicidal effect on commercial cellulose germ holder; details: reference disinfectant as such; 10 minutes
# Protocol: In this case, another more demanding test was used, since the sporicidal effect was assessed. It is similar to the bactericidal effect, but instead of contaminated instruments, a commercial, cellulose germ holder was used, impregnated in spores. In fact, this is the biological control used in sterilisation by ethylene oxide: spores of B subtilis, at a concentration guaranteed by the manufacturer (3M) and which exceed a million spores per germ holder. The rest was similar to that described in the endodontic file method.
# [4] = tested on: S. aureus, S. epidermidis, E. faecalis, E. coli, K. pneumoniae, E. cloacae, P. mirabilis, Acinetobacter baumanii, P. aeruginosa, C. albicans, Mycobacterium …; experiment: Bactericidal effect on endodontic files, whole panel of Example 1; details: 20 minutes
# Protocol: For the determination of these three effects, the methods described by Herruzo et al in 1999 were used (Rev Stomatol Chir maxillofac 1999; 100: 299-305), which may be resumed as follows: • a) Bactericidal effect on instruments difficult to disinfect: No. 25 endodontic files.
# These files are contaminated in a micro-organism for 30 minutes and after drying for 15 minutes in an oblique position, they are introduced in the disinfectant for 5, 10, 15, 20, etc. minutes. Afterwards, they are removed and submerged in a tube with glass beads and a disinfectant inhibitor (broth plus 6% Tween 80, plus 0.5% sodium bisulphite and 0.5% sodium thiosulphate). The tubes are then stirred for 1 minute to detach the surviving micro-organisms, and samples are cultured over the entire surface of agar plates with the culture medium suitable for the tested micro-organism (Müeller-Hinton or Saboureaud-dextrose for yeasts or HIB for mycobacteria, etc.). […] It is recorded if there was any deterioration or not and the time at which it occurred. […]
Molecule,MIC (minimum inhibiting concentration) [1],MIC (minimum inhibiting concentration) [2],reduction of the spore inoculum [3] [log 10],bactericidal effect against Mycobacterium [4]
Didecyl-metyl-polyoxy-ethyl-ammonium propionate,1/160,1/20480,,
"[H]/N=C(\N/C(=N/[H])NCCCCCCNC(=N)NC(=N)Nc1ccc(Cl)cc1)Nc1ccc(Cl)cc1 [Clo, Chlorhexidine]",1/2560,1/20480,,
"O=CCCCC=O [2% glutaraldehyde, glutaraldehyde]",,,1.5,did not completely destroyed the inoculum
